Test systems include NCI-H226; OVCAR-4; KM12; RXF 393; SF-539; UACC-62; COLO 205; A549; NCI-H460; K562; IGROV-1; SF-295; PC-3; HCT-15; EKVX; RPMI-8226; NCI/ADR-RES; Hs-578T.
Assay in all cases: DTP human tumour cell line panel, 48 h

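Protocol summary: plate cells (96-well), add compound at 5 concentrations, incubate 48 h, interpolate endpoints linearly. GI50 marks 50% less growth.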 Calls of active or inactive are those of the source. No stated cut-off is given here; in the data, active = GI50 up to about 1.1 µM and inactive = higher. A value given as a limit tells only on which side of the number the result lay.

`CCN1CCCc2cc3c(C(F)(F)F)cc(=O)oc3cc21`: the GI50 is 64.6 µM (inactive) with NCI-H226; > 100 µM (inactive) with OVCAR-4; > 100 µM (inactive) with KM12; 20.6 µM (inactive) in the experiment on RXF 393; > 100 µM (inactive) in the experiment on SF-539; > 100 µM (inactive) in the experiment on UACC-62. For the same molecule, the GI50 is 63.8 µM (inactive) in the experiment on COLO 205; > 100 µM (inactive) in the experiment with A549; 82.8 µM (inactive) with NCI-H460; 63.8 µM (inactive) in the experiment on K562; > 100 µM (inactive) with IGROV-1; 63.4 µM (inactive) with SF-295. Also, the GI50 in the experiment on PC-3 was 20.7 µM (inactive); with HCT-15, more than 100 µM; with EKVX, 8.11 µM (inactive).
Turning to `CC1(C)C2CCC1(C)[C@H](O)[C@H]2Nc1cc(C(F)(F)F)cc(C(F)(F)F)c1` (stereo partly specified), the GI50 in the experiment on NCI-H226 is 6.5 µM (inactive); in the experiment with OVCAR-4 it was 5.12 µM (inactive); with KM12, 2.88 µM (inactive); in the experiment with RPMI-8226, 3.01 µM (inactive); in the experiment with RXF 393, 2.85 µM (inactive); with SF-539, 4.66 µM (inactive). For the same molecule, the GI50 in the experiment with UACC-62 was > 100 µM (inactive); with COLO 205, 1.79 µM (inactive); in the experiment with NCI/ADR-RES, 3.07 µM (inactive); in the experiment on A549, 3.7 µM (inactive); in the experiment with NCI-H460, 3.71 µM (inactive); in the experiment with K562, 2.79 µM (inactive). For the same molecule, the GI50 in the experiment with IGROV-1 was 4.74 µM (inactive); in the experiment with SF-295, 2.37 µM (inactive); in the experiment with PC-3, 2.47 µM (inactive); in the experiment with HCT-15, 3.49 µM; with EKVX it was 3.83 µM (inactive).
Turning to `CC1=C(C(=O)NC2CCCCC2)CC(C(=O)NC2CCCCC2)=C(C)N1`, the GI50 in the experiment on OVCAR-4, with KM12, with RPMI-8226, in the experiment with RXF 393, with SF-539 and in the experiment on UACC-62 was > 100 µM (inactive) each time. Moreover, the GI50 is > 100 µM (inactive) in the experiment on COLO 205; > 100 µM (inactive) in the experiment on A549; > 100 µM (inactive) with NCI-H460; 57.4 µM (inactive) in the experiment on K562; > 100 µM (inactive) in the experiment on IGROV-1; > 100 µM (inactive) with SF-295. Besides, the GI50 with Hs-578T was 24.9 µM (inactive); with PC-3, 77.4 µM (inactive); in the experiment with HCT-15, more than 100 µM; with EKVX, > 100 µM (inactive).
With `COc1ccc(NC(=O)C(C#N)=C(SC)SC)cc1`, the GI50 in the experiment on NCI-H226, in the experiment with OVCAR-4, with RPMI-8226, in the experiment with RXF 393, in the experiment with SF-539 and with UACC-62 was > 100 µM (inactive) throughout. Further, the GI50 in the experiment with COLO 205 is > 100 µM (inactive); in the experiment with A549 it was > 100 µM (inactive); in the experiment with NCI-H460, > 100 µM (inactive); in the experiment on K562, > 100 µM (inactive); in the experiment with IGROV-1 it was 58.6 µM (inactive); in the experiment on SF-295, > 100 µM (inactive). The GI50 is > 100 µM (inactive) in the experiment with Hs-578T, > 100 µM (inactive) in the experiment with PC-3, more than 100 µM with HCT-15 and > 100 µM (inactive) in the experiment on EKVX.
As for `Cc1c(Cl)c(S(N)(=O)=O)cc(S(N)(=O)=O)c1NC(=O)c1ccc(Cl)cc1`, the GI50 in the experiment with NCI-H226, with OVCAR-4, with KM12, in the experiment with RPMI-8226, with RXF 393 and in the experiment with UACC-62 was > 100 µM (inactive) each time. Further, the GI50 in the experiment on COLO 205, in the experiment on NCI/ADR-RES, in the experiment on A549, in the experiment with NCI-H460, in the experiment on K562 and in the experiment on IGROV-1 was > 100 µM (inactive) throughout. The GI50 with SF-295 is > 100 µM (inactive); in the experiment with Hs-578T, > 100 µM (inactive); with PC-3 it was > 100 µM (inactive); in the experiment on HCT-15, more than 100 µM.
Take `O=C(O[C@H](/C=C/c1ccccc1)P1(=O)N(Cc2ccccc2)[C@H]2CCCC[C@@H]2N1Cc1ccccc1)c1ccccc1`: the GI50 was 2.33 µM (inactive) in the experiment on NCI-H226; 1.49 µM (inactive) in the experiment on OVCAR-4; 3.41 µM (inactive) with KM12; 3.42 µM (inactive) in the experiment on RPMI-8226; 3.72 µM (inactive) in the experiment on SF-539; 5.33 µM (inactive) in the experiment with UACC-62. Also, the GI50 in the experiment with COLO 205 is 1.68 µM (inactive); in the experiment on NCI/ADR-RES, 3.05 µM (inactive); with A549, 3.7 µM (inactive); with NCI-H460, 3.72 µM (inactive); with K562, 4.2 µM (inactive); in the experiment on IGROV-1, 3.21 µM (inactive). For the same molecule, the GI50 in the experiment on SF-295 is 3.74 µM (inactive); in the experiment on Hs-578T it was 9.31 µM (inactive); in the experiment on PC-3, 3.58 µM (inactive); in the experiment on HCT-15, 3.22 µM; in the experiment with EKVX, 4.56 µM (inactive).
`COc1ccc(CNc2nc3cc(C(F)(F)F)ccc3nc2C(=O)O)cc1`: the GI50 in the experiment with NCI-H226 is 40 µM (inactive); with OVCAR-4, 32.9 µM (inactive); with KM12, 22.4 µM (inactive); in the experiment with RPMI-8226, 39.3 µM (inactive); in the experiment with SF-539, 23 µM (inactive); in the experiment on UACC-62, 21.9 µM (inactive). The GI50 with COLO 205 was 22.5 µM (inactive); with NCI/ADR-RES it was 24.3 µM (inactive); with A549 it was 28.8 µM (inactive); in the experiment on NCI-H460, 31.4 µM (inactive); with K562 it was 24.7 µM (inactive); in the experiment on IGROV-1, 27.4 µM (inactive). Further, the GI50 with SF-295 was 32 µM (inactive); with PC-3 it was 31.2 µM (inactive); with HCT-15, 22.6 µM; in the experiment on EKVX, 23.6 µM (inactive).
With `CC(=O)C(=CNc1c(C)n(C)n(-c2ccccc2)c1=O)C(C)=O`, the GI50 in the experiment with NCI-H226, in the experiment on OVCAR-4, with KM12, in the experiment with RPMI-8226, in the experiment with RXF 393 and with SF-539 was > 100 µM (inactive) each time. Also, the GI50 in the experiment with UACC-62, with COLO 205, in the experiment with NCI/ADR-RES, in the experiment on A549, in the experiment on K562 and in the experiment on IGROV-1 was > 100 µM (inactive) throughout. Also, the GI50 was > 100 µM (inactive) in the experiment on SF-295, > 100 µM (inactive) with PC-3, more than 100 µM in the experiment on HCT-15 and > 100 µM (inactive) with EKVX.
Regarding `CC(C)C1=CC2=C(C(=O)C1=O)C13CCCC(C)(C)C1CC2OC3=O` (stereo unspecified), the GI50 with NCI-H226 was 18.6 µM (inactive); in the experiment on OVCAR-4 it was 18.6 µM (inactive); in the experiment with KM12 it was 31.8 µM (inactive); in the experiment with RPMI-8226, 8.18 µM (inactive); with SF-539, 20.7 µM (inactive); with UACC-62, 13.4 µM (inactive). The GI50 with COLO 205 was 17.2 µM (inactive); in the experiment with NCI/ADR-RES, 18.9 µM (inactive); with A549, 43.5 µM (inactive); in the experiment with NCI-H460 it was 26.2 µM (inactive); in the experiment on K562, 3.64 µM (inactive); with IGROV-1, 17.3 µM (inactive). Besides, the GI50 in the experiment with SF-295 was 37 µM (inactive); in the experiment on Hs-578T it was 34.4 µM (inactive); in the experiment with PC-3, 24.2 µM (inactive); with HCT-15 it was 12.8 µM; in the experiment with EKVX, 16.2 µM (inactive).
In the case of `Oc1ccc2ccccc2c1OCc1nnc(CCCCCCCCc2nnc(COc3c(O)ccc4ccccc34)o2)o1`, the GI50 in the experiment on NCI-H226 is > 100 µM (inactive); in the experiment with OVCAR-4, > 100 µM (inactive); in the experiment with KM12 it was 25.2 µM (inactive); in the experiment with RPMI-8226, > 100 µM (inactive); in the experiment on RXF 393, > 100 µM (inactive); in the experiment with UACC-62, > 100 µM (inactive). Besides, the GI50 in the experiment with COLO 205, with NCI/ADR-RES, with A549, with NCI-H460, in the experiment with K562 and with IGROV-1 was > 100 µM (inactive) each time. Further, the GI50 is > 100 µM (inactive) in the experiment with SF-295, > 100 µM (inactive) in the experiment on PC-3, more than 100 µM with HCT-15 and > 100 µM (inactive) in the experiment with EKVX.
With `CC#CCCCC1(C)CCNC1=S` (stereo unspecified), the GI50 with NCI-H226, with OVCAR-4, with KM12, in the experiment with RXF 393, in the experiment on SF-539 and in the experiment on A549 was > 10 µM (inactive) each time. Besides, the GI50 in the experiment on NCI-H460 was > 10 µM (inactive); with K562, > 10 µM (inactive); in the experiment on SF-295 it was > 10 µM (inactive); in the experiment on Hs-578T, > 10 µM (inactive); in the experiment on PC-3, > 10 µM (inactive); in the experiment on HCT-15 it was more than 10 µM. The GI50 in the experiment on EKVX was > 10 µM (inactive).
As for `C=C(C)OCOCCOC`, the GI50 with NCI-H226, in the experiment with KM12, in the experiment on RPMI-8226, in the experiment on SF-539, in the experiment with UACC-62 and in the experiment on COLO 205 was > 100 µM (inactive) throughout. For the same molecule, the GI50 with NCI/ADR-RES, with A549, with NCI-H460, in the experiment on K562, in the experiment with IGROV-1 and in the experiment on SF-295 was > 100 µM (inactive) in each case. Further, the GI50 in the experiment on Hs-578T was > 100 µM (inactive); with PC-3 it was > 100 µM (inactive); in the experiment on HCT-15 it was more than 100 µM; in the experiment with EKVX, > 100 µM (inactive).

Source of the values: ChEMBL document CHEMBL1201862, “PubChem BioAssay data set” (2004).
